From PubChem BioAssay AID1963837 (Molecular Pharmacology Branch, DTP, NCI, 2024)
pIC50: −log10 of the molar value. Values joined by “and” are separate entries in the source; they are usually repeats but may differ in a detail not shown here. Equal entries are not always repeated.

Test system: 843126-344-R-J1-PDC complex spheroid viability
Test: Anticancer human tumor 843126-344-R-J1-PDC patient-derived melanoma cell line growth inhibition [POLQ]
Conditions: for viability, T/C: stronger effect = lower value
Experimental: Multicellular complex tumor spheroid response to Polymerase (POL) inhibitors (novobiocin, ART-558, RP6685) in combination with a variety of drugs and investigational agents in selected tumor cell lines
The POL inhibitors (novobiocin, ART-558, and RP6685) were evaluated both individually and in combination with standard of care and investigational anticancer small molecules within a complex spheroid model of solid tumors. . Complex spheroids include a stromal component modeled by human endothelial cells (HUVEC) and fibroblasts modeled by human mesenchymal stem cells (MSCs). The concentration ranges selected for each drug and investigational agent were based upon clinically achievable concentrations if the clinical Cmax of the agent was known.
Compounds. The drugs and investigational agents: novobiocin (NSC847541), ART-558 (NSC835418), RP-6685 (NSC848927), peposertib (NSC802822), ceralasertib (NSC780249), elimusertib (NSC800525), camonsertib (NSC841442), AZD-1390 (NSC803789), olaparib (NSC753686), talazoparib (NSC767125), rucaparib (NSC756644), sotorasib (NSC818433), MRTX-1133 (NSC836407), SN-38 (NSC673596), topotecan (NSC609699), epotoside (NSC141540), doxorubicin (NSC123127), gemcitabine (NSC613327), 5-fluorouracil (NSC19893), paclitaxel (NSC125973), vemurafenib (NSC761431), MSA-2 (NSC828583), SN-011 (NSC837082), adavosertib (NSC754352), prexasertib (NSC758257), carboplatin (NSC241240) and oxaliplatin (NSC266046), were obtained from the National Cancer Institute (NCI) Developmental Therapeutics Program Chemical Repository (21). The FDA-approved anticancer drug set is available from the Developmental Therapeutics Program at https://dtp.cancer.gov/organization/dscb/obtaining/. […] The stock solutions were prepared in dimethyl sulfoxide (DMSO, Sigma-Aldrich, St. Louis, MO, cat. D2650), except for the platinum compounds which were prepared in saline (Quality Biological, Gaithersburg, MD, cat. 114-055-101), at 800-fold the tested concentration and stored at -70 degrees C prior to their use. All drugs and investigational agents were tested over a range starting from a high concentration at or near the clinical Cmax and decreasing in half-log increments. If the clinical Cmax for an agent had not been determined, the highest concentration tested was 10 microM, except for SN-38, which was tested at a high concentration of 1 microM.
Cell Culture. All cells were maintained in an incubator at 37 degrees C and 5% CO2 with 95% humidity. The PDC lines were cultured according to standard operating procedures established by the NCI PDMR (https://pdmr.cancer.gov). Table 3 of the manuscript, lists the cell lines along with the number of the three cell types plated to form the mct-spheroids and media for tumor cell growth. After thawing, all PDC lines, except 997537-175-T-J1-PDC and 415267-285-R-J2-PDC, were cultured in Matrigel-coated flasks prepared with a working solution of 1X Ham's F-12 nutrient mix, without supplementation (Thermo Fisher Scientific, cat. 11765054), 100 U/mL penicillin-streptomycin (Thermo Fisher Scientific, cat. 15140122), and 2.5% Matrigel (Corning Inc., Corning, NY, cat. 354248) for the first three passages. The two PDC lines 997537-175-T-J1-PDC and 415267-285-R-J2-PDC were cultured on uncoated flasks. The 857933-349-R-J2-PDC line was cultured in 6C/Colon 1B media containing advanced DMEM/F-12 (Thermo Fisher Scientific, cat. 12634028), 10 mM HEPES (Thermo Fisher Scientific, cat. 15630080), 1X GlutaMAX supplement (Thermo Fisher Scientific, cat. 35050061), 0.1 mg/mL primocin (InvivoGen, San Diego, CA, cat. ant-pm-2), 10% defined fetal bovine serum, heat inactivated (HyClone Laboratories Inc., Logan, UT, cat. SH30070.03HI), 50% L-WRN conditioned media (ATCC, cat. CRL-3276), 1.25 mM N-Acetyl-L-cysteine (Sigma-Aldrich, cat. A9165), 10 mM nicotinamide (Sigma-Aldrich, cat. N0636), 1X B-27 supplement (Thermo Fisher Scientific, cat. 17504044), 1X N-2 supplement (Thermo Fisher Scientific, cat. […]
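Wherever viability, T/C is given: spheroids exposed to drugs for seven days before readout.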

`CNCc1ccc(-c2[nH]c3cc(F)cc4c3c2CCNC4=O)cc1` was tested, and the viability, T/C (compound 0.0316 µM) was 99.4% and 100% and 94.8%, the viability, T/C (compound 0.1 µM) was 77.4% and 81.4% and 75.4% and the viability, T/C (compound 0.316 µM) was 87.7% and 100% and 97.9%. The viability, T/C (compound 1 µM) was 76% and 91.1% and 107%, the viability, T/C (compound 3.16 µM) was 76% and 108% and 89% and the viability, T/C (compound 10 µM) was 73.8% and 87% and 79.3%. For the same compound, the pIC50 (curve of compound) was under 5.00.
In the case of `Cn1ncnc1[C@H]1c2n[nH]c(=O)c3cc(F)cc(c23)N[C@@H]1c1ccc(F)cc1`, the viability, T/C (compound 0.000316 µM) was 85.9% and 104% and 97.7%, the viability, T/C (compound 0.001 µM) was 103% and 90.3% and 99.6% and the viability, T/C (compound 0.00316 µM) was 103% and 95% and 84.3%. For the same compound, the viability, T/C (compound 0.01 µM) was 86.2% and 97.3% and 92.6%, the viability, T/C (compound 0.0316 µM) was 86.9% and 122% and 88.4% and the viability, T/C (compound 0.1 µM) was 84.2% and 90.4% and 88%. It also gave a pIC50 (curve of compound) of under 7.00.
Compound `CC1COCCN1c1cc(C2(O)CC3CCC(C2)O3)c2cnn(-c3ccn[nH]3)c2n1` (stereo not drawn) + COC1C(OC(N)=O)C(O)C(Oc2ccc3c(O)c(NC(=O)c4ccc(O)c(CC=C(C)C)c4)c(=O)oc3c2C)OC1(C)C has a pIC50 (curve of first compound, second compound 0.0316 µM) of 6.41, a pIC50 (curve of first compound, second compound 0.1 µM) of 6.31 and a pIC50 (curve of first compound, second compound 0.316 µM) of 6.39. It also gave a pIC50 (curve of first compound, second compound 1 µM) of 6.41, a pIC50 (curve of first compound, second compound 3.16 µM) of 6.40 and a pIC50 (curve of first compound, second compound 10 µM) of 6.31. It also gave a viability, T/C (second compound 0.0316 µM, first compound 0.0316 µM) of 83.6%, a viability, T/C (second compound 0.0316 µM, first compound 0.1 µM) of 66.6% and a viability, T/C (second compound 0.0316 µM, first compound 0.316 µM) of 53.6%. The viability, T/C (second compound 0.0316 µM, first compound 1 µM) was 38.9%, the viability, T/C (second compound 0.0316 µM, first compound 3.16 µM) was 22.7% and the viability, T/C (second compound 0.0316 µM, first compound 10 µM) was 14.5%. The viability, T/C (second compound 0.1 µM, first compound 0.0316 µM) was 78.8%, the viability, T/C (second compound 0.1 µM, first compound 0.1 µM) was 78.9% and the viability, T/C (second compound 0.1 µM, first compound 0.316 µM) was 53.2%. It also gave a viability, T/C (second compound 0.1 µM, first compound 1 µM) of 38.8%, a viability, T/C (second compound 0.1 µM, first compound 3.16 µM) of 27.2% and a viability, T/C (second compound 0.1 µM, first compound 10 µM) of 18.3%. It also gave a viability, T/C (second compound 0.316 µM, first compound 0.0316 µM) of 92.1%, a viability, T/C (second compound 0.316 µM, first compound 0.1 µM) of 64.9% and a viability, T/C (second compound 0.316 µM, first compound 0.316 µM) of 51.5%. For the same compound, the viability, T/C (second compound 0.316 µM, first compound 1 µM) was 44.5%, the viability, T/C (second compound 0.316 µM, first compound 3.16 µM) was 22.5% and the viability, T/C (second compound 0.316 µM, first compound 10 µM) was 15.1%. The viability, T/C (second compound 1 µM, first compound 0.0316 µM) was 73.2%, the viability, T/C (second compound 1 µM, first compound 0.1 µM) was 68.3% and the viability, T/C (second compound 1 µM, first compound 0.316 µM) was 51.4%. The viability, T/C (second compound 1 µM, first compound 1 µM) was 36.3%, the viability, T/C (second compound 1 µM, first compound 3.16 µM) was 27.4% and the viability, T/C (second compound 1 µM, first compound 10 µM) was 14.7%. It also gave a viability, T/C (second compound 3.16 µM, first compound 0.0316 µM) of 88.7%, a viability, T/C (second compound 3.16 µM, first compound 0.1 µM) of 55.5% and a viability, T/C (second compound 3.16 µM, first compound 0.316 µM) of 53.2%. It also gave a viability, T/C (second compound 3.16 µM, first compound 1 µM) of 46.8%, a viability, T/C (second compound 3.16 µM, first compound 3.16 µM) of 26.1% and a viability, T/C (second compound 3.16 µM, first compound 10 µM) of 15.6%. It also gave a viability, T/C (second compound 10 µM, first compound 0.0316 µM) of 72.5%, a viability, T/C (second compound 10 µM, first compound 0.1 µM) of 66.9% and a viability, T/C (second compound 10 µM, first compound 0.316 µM) of 54.7%. It also gave a viability, T/C (second compound 10 µM, first compound 1 µM) of 41.6%, a viability, T/C (second compound 10 µM, first compound 3.16 µM) of 25.6% and a viability, T/C (second compound 10 µM, first compound 10 µM) of 11.7%.
In the case of `Nc1ccn(C2OC(CO)C(O)C2(F)F)c(=O)n1` (stereo not drawn), the viability, T/C (compound 0.0316 µM) was 46.2% and 42.9% and 42.2%, the viability, T/C (compound 0.1 µM) was 38.7% and 36.8% (2×) and the viability, T/C (compound 0.316 µM) was 47.1% and 45.8% and 33.8%. For the same compound, the viability, T/C (compound 1 µM) was 43% and 35% and 37.6%, the viability, T/C (compound 3.16 µM) was 41.3% and 39.6% and 33.5% and the viability, T/C (compound 10 µM) was 38.2% and 37.7% and 35.1%. It also gave a pIC50 (curve of compound) of over 7.50.
